Patent publication US12012411B2, “Viral replication inhibitors” (Katholieke Universiteit Leuven, priority 2011, dated 2024)

How the values were obtained:
in vitro = settings: African green monkey; for CC50 at 4 days: uninfected quiescent Vero-B cells
DENV-2 NGC = assay: Antiviral activity against DENV-2 NGC in Vero-B cells (viral RNA load by RT-qPCR); type: cell-based, Dengue virus; settings: Dengue virus, DENV2, Vero B, DENV-2 in Vero-B cells; inhibition of viral RNA replication by 50% (Table 3)

| Structure (SMILES) | CC50 at 4 days (in vitro) [µM] | EC50 (DENV-2 NGC) [µM] | CC50 (in vitro) [µM] |
| --- | --- | --- | --- |
| O=C(c1c[nH]c2ccccc12)C(NC1CCOc2ccccc21)c1ccccc1 (stereo not drawn) [CPD-182] | 12 | 3.01 | – |
| Cc1cc(NC(C(=O)c2c[nH]c3ccccc23)c2ccccc2)no1 (stereo not drawn) [CPD-022] | 77 | 12.8 | – |
| COc1cc(NC(C(=O)c2cn(C)c3c(CCO)cccc23)c2ccccc2)cc(OC)c1 (stereo not drawn) [CPD-358] | 63 | 0.18 | – |
| COc1cncc(NC(C(=O)c2c[nH]c3c(CCO)cccc23)c2ccccc2)c1 (stereo not drawn) [CPD-364] | 62 | 1.12 | – |
| COc1cc(NC(C(=O)c2c[nH]c3c(CCN(C)C)cccc23)c2ccccc2)cc(OC)c1 (stereo not drawn) [CPD-365] | 12 | 2.03 | – |
| COc1cccc(NC(C(=O)c2c[nH]c3cnccc23)c2ccccc2)c1 (stereo not drawn) [CPD-200] | 54 | 2.24 | – |
| COc1ccnc(NC(C(=O)c2c[nH]c3ccccc23)c2ccccc2)n1 (stereo not drawn) [CPD-089] | > 139 | 0.67 | – |
| COc1cc(NC(C(=O)c2c[nH]c3cc(Cl)ccc23)c2cn3ccccc3n2)ccn1 (stereo not drawn) [CPD-069] | 71 | 2.13 | – |
| O=C(O)c1cccc(NC(C(=O)c2c[nH]c3ccccc23)c2ccccc2)c1 (stereo not drawn) [CPD-071] | 135 | 60.9 | – |
| COc1cccc(NC(C(=O)c2c[nH]c3ccccc23)c2cc3n(n2)CCOC3)c1 (stereo not drawn) [CPD-311] | 77 | 2.58 | – |
| COc1cccc(NC(C(=O)c2c[nH]c3ccccc23)c2ccc(O)nc2)c1 (stereo not drawn) [CPD-063] | > 134 | 14.3 | – |
| COc1cccc(NC(C(=O)c2nn(C)c3ccc(C#N)cc23)c2ccccc2)c1 (stereo not drawn) [CPD-275] | > 126 | 9.96 | – |
| CC(NC(C(=O)c1c[nH]c2ccccc12)c1ccccc1)c1ccco1 (stereo not drawn) [CPD-180] | > 145 | 57 | – |
| COc1cccc(NC(C(=O)c2cn(CCN)c3ccccc23)c2ccccc2)c1 (stereo not drawn) [CPD-105] | – | 1.23 | 14 |
| CCOC(=O)c1cccc(NC(C(=O)c2c[nH]c3ccccc23)c2ccccc2)c1 (stereo not drawn) [CPD-068] | 12 | 1.32 | – |
| CCCN1CCC(NC(C(=O)c2c[nH]c3ccccc23)c2ccccc2)CC1 (stereo not drawn) [CPD-184] | 70 | 22.4 | – |
| COc1cncc(NC(C(=O)c2nn(C)c3ccccc23)c2ccccc2)n1 (stereo not drawn) [CPD-276] | 23 | 2.62 | – |
| COc1cccc(NC(C(=O)c2cn(S(=O)(=O)c3cn(C)cn3)c3ccccc23)c2ccccc2)c1 (stereo not drawn) [CPD-209] | > 100 | 1.12 | – |
| COc1cc(NC(C(=O)c2c[nH]c3ccccc23)c2ccccc2)ncn1 (stereo not drawn) [CPD-072] | 68 | 6.84 | – |
| CCOc1cncc(NC(C(=O)c2c[nH]c3ccccc23)c2ccccc2)c1 (stereo not drawn) [CPD-246] | 16 | 0.32 | – |
| O=C(c1c[nH]c2ccccc12)C(NCC1COc2ccccc2O1)c1ccccc1 (stereo not drawn) [CPD-190] | 11 | 1.71 | – |
| COc1cccc(NC(C(=O)c2cn(S(C)(=O)=O)c3ccccc23)c2ccccc2)c1 (stereo not drawn) [CPD-111] | > 115 | 0.44 | – |
| COc1cccc(NC(C(=O)c2c[nH]c3ccccc23)c2ccc(C#N)c(F)c2)c1 (stereo not drawn) [CPD-132] | 12 | 0.05 | – |
| CNS(=O)(=O)c1cccc(NC(C(=O)c2c[nH]c3ccccc23)c2ccccc2)c1 (stereo not drawn) [CPD-052] | 52 | 3.72 | – |
| COc1cccc(NC(C(=O)c2c[nH]c3cc(O)ccc23)c2ccccc2)c1 (stereo not drawn) [CPD-134] | 49 | 0.46 | – |
| COc1cccc(NC(C(=O)c2cn(S(=O)(=O)C3CCNCC3)c3ccccc23)c2ccccc2)c1 (stereo not drawn) [CPD-217] | 11 | 0.25 | – |

| Structure (SMILES) | CC50 at 4 days (in vitro) [µM] | EC50 (DENV-2 NGC) [µM] | CC50 (in vitro) [µM] |
| --- | --- | --- | --- |
| COc1cc(NC(C(=O)c2cn(S(C)(=O)=O)c3ccccc23)c2ccccc2)ccn1 (stereo not drawn) [CPD-121] | 60 | 5.76 | – |
| COc1cccc(NC(C(=O)c2cn(CCN(C)C)c3ccccc23)c2ccccc2)c1 (stereo not drawn) [CPD-114] | – | 1.1 | 52 |
| COc1cccc(NC(C(=O)c2cn(CC(=O)O)c3ccccc23)c2ccccc2)c1 (stereo not drawn) [CPD-106] | – | 8.93 | > 120 |
| COc1cccc(NC(C(=O)c2nn(C)c3cc(C#N)ccc23)c2ccccc2)c1 (stereo not drawn) [CPD-286] | > 126 | 1.05 | – |
| O=C(c1c[nH]c2ccccc12)C(Nc1cccc(N2CCCC2=O)c1)c1ccccc1 (stereo not drawn) [CPD-181] | > 122 | 4.22 | – |
| COc1cccc(NC(C(=O)c2cn(CCN3CCOCC3)c3ccccc23)c2ccccc2)c1 (stereo not drawn) [CPD-216] | – | 0.84 | > 106 |
| COc1cccc(NC(C(=O)c2c[nH]c3ccccc23)c2cccc(-c3cncnc3)c2)c1 (stereo not drawn) [CPD-054] | > 115 | 2.09 | – |
| COc1cccc(NC(C(=O)c2cn(C)c3ccccc23)c2cc(C)on2)c1 (stereo not drawn) [CPD-117] | > 133 | 3.57 | – |
| COc1cccc(NC(C(=O)c2c[nH]c3ccccc23)c2cccs2)c1 (stereo not drawn) [CPD-024] | 14 | 0.5 | – |
| CCn1nccc1C(Nc1cccc(OC)c1)C(=O)c1c[nH]c2ccccc12 (stereo not drawn) [CPD-107] | 20 | 7.88 | – |
| CN(Cc1ccco1)C(C(=O)c1c[nH]c2ccccc12)c1ccccc1 (stereo not drawn) [CPD-189] | > 145 | 0.93 | – |
| CCOc1ccc(C(Nc2cccc(OC)c2)C(=O)c2c[nH]c3ccccc23)cn1 (stereo not drawn) [CPD-250] | 15 | 0.22 | – |
| COc1ccc2[nH]cc(C(=O)C(Nc3ccnc(OC)c3)c3ccccc3)c2c1 (stereo not drawn) [CPD-078] | 109 | 11.6 | – |
| CNC(=O)c1cccc(NC(C(=O)c2c[nH]c3ccccc23)c2ccccc2)c1 (stereo not drawn) [CPD-170] | 26 | 0.44 | – |
| COc1cc(NC(C(=O)c2c[nH]c3ccccc23)c2cn3ccccc3n2)ccn1 (stereo not drawn) [CPD-064] | 72 | 8.75 | – |
| COc1cc(NC(C(=O)c2c[nH]c3c(CO)cccc23)c2ccccc2)cc(OC)c1 (stereo not drawn) [CPD-362] | 41 | 0.09 | – |
| O=C(c1c[nH]c2ccccc12)C(NCc1cccs1)c1ccccc1 (stereo not drawn) [CPD-033] | 71 | 9.15 | – |
| COc1cc(NC(C(=O)c2c[nH]c3ccc(CCO)cc23)c2ccccc2)cc(OC)c1 (stereo not drawn) [CPD-370] | 66 | 0.06 | – |
| COc1cccc(NC(C(=O)c2c[nH]c3ccccc23)c2ccc(-c3cncnc3)cc2)c1 (stereo not drawn) [CPD-048] | > 115 | 2.09 | – |
| COc1cc(NC(C(=O)c2c[nH]c3ccccc23)c2cn3c(F)cccc3n2)ccn1 (stereo not drawn) [CPD-081] | 50 | 10.8 | – |
| COc1cccc(NC(C(=O)c2c[nH]c3ccccc23)c2ccc3c(c2)n(C)c(=O)n3C)c1 (stereo not drawn) [CPD-060] | > 113 | 10.3 | – |
| O=C(c1c[nH]c2ccccc12)C(NCc1ccco1)c1ccccc1 (stereo not drawn) [CPD-034] | > 151 | 46.5 | – |
| COc1cccc(NC(C(=O)c2c[nH]c3cc(CO)ccc23)c2ccccc2)c1 (stereo not drawn) [CPD-140] | 53 | 2.15 | – |
| CCS(=O)(=O)n1cc(C(=O)C(Nc2cccc(OC)c2)c2ccccc2)c2ccccc21 (stereo not drawn) [CPD-211] | > 111 | 2.83 | – |
| COc1cccc(NC(C(=O)c2c[nH]c3ccccc23)c2ccc(COCN(C)C)cc2)c1 (stereo not drawn) [CPD-112] | 12 | 3.27 | – |
